Data from patent US12504371B2, “System and method of dynamic micro-optical coherence tomography for mapping cellular functions” (The General Hospital Corporation, priority 2020, dated 2025).

What was measured:
[1] = test system: freshly excised murine liver; experiment: d-μOCT imaging of freshly excised murine liver in blebbistatin; type: cell-based; details: 30 μM blebbistatin, t=40 minutes vs t=0; Red 0-0.08 Hz, Green 3.98-20 Hz
Source text: d-μOCT enables high contrast, subcellular, cross-sectional motility imaging of intact human and animal tissues ex vivo. d-μOCT data (FIGS. 7, 9-16) were obtained using a μOCT benchtop system microscope that employs a supercontinuum-illuminated, common path, spectral domain OCT (SDOCT) system to obtain cross-sectional images with a resolution of 2 μm×2 μm (lateral)×1 μm (axial). The depth of focus was 300 μm, extended by annular apodization of the sample arm's objective lens. Images were acquired at an A-line (depth resolved reflectivity profile) rate of 20 KHz and spanned 1 mm laterally. All tissues samples were imaged fresh in culture media (10% FBS/DMEM+1% pen-strep) at 25° C. Two scan modes were used: 1) N=1000 images (512 A-lines/image) acquired sequentially over a period of 25 seconds (FIG. 8, scan mode 1) or 2) N=1000 A-lines acquired sequentially at each lateral scan point (FIG. 8, scan mode 2). Following local elastic unwarping to remove bulk motion caused by evaporation or vibration, a power spectrum estimate (periodogram) was computed on a pixel-per-pixel basis using Welch's method and frequency normalization. For scan mode 1, to represent the data in a single image, low (−0-0.1 Hz), middle (−0.5-0.7 Hz) and high (−4-20 Hz) frequency component images were merged into the RGB channels of a 24-bit color image. […]

[2] = test system: MC38 murine tumor; experiment: d-μOCT and CC3 IHC of freshly excised MC38 tumor treated with a drug-containing IMD; type: in vivo; details: IMD containing doxorubicin, 6 hrs; mid frequency Blue 0.47-0.63 Hz
Description: Dynamic-μOCT has been applied to human biopsies and chemotherapy-treated tumors grown in mouse models. In human biopsies, it is possible to use d-μOCT to distinguish microscopic features (e.g. cell nuclei, organelles, and cell membranes), cellular structures (e.g. squamous, glandular, inflammatory cells), and different cell types that were not evident in corresponding regular μOCT images. Ex vivo experiments were also performed using tumors grown with human cell lines. Custom microdevices containing small amounts of chemotherapeutic drugs were inserted into the tumors. For example, effects of intra-tumoral apoptosis were distinguished with d-μOCT and confirmed with histology images stained with cleaved caspase-3 (CC3), an apoptosis marker.
Panel (B) is from the same location in the sample. d-μOCT color codes: Red 0-0.08 Hz, Blue 0.47-0.63 Hz, Green 3.98-20 Hz. Bars, 200 μm.
d-μOCT enables high contrast, subcellular, cross-sectional motility imaging of intact human and animal tissues ex vivo. d-μOCT data (FIGS. 7, 9-16) were obtained using a μOCT benchtop system microscope that employs a supercontinuum-illuminated, common path, spectral domain OCT (SDOCT) system to obtain cross-sectional images with a resolution of 2 μm×2 μm (lateral)×1 μm (axial). The depth of focus was 300 μm, extended by annular apodization of the sample arm's objective lens. […]

Compound	change in d-μOCT intracellular motion frequency content [1]	d-μOCT frequency content compared with cleaved caspase-3 (CC3) IHC [2]
Cc1ccc2c(c1)C(=O)C1(O)CCN(c3ccccc3)C1=N2 (centres unmarked) [blebbistatin]	dramatic reduction in high frequency (green) and increase in low frequency (red) intracellular motion	–
COc1cccc2c1C(=O)c1c(O)c3c(c(O)c1C2=O)C[C@@](O)(C(=O)CO)C[C@@H]3O[C@H]1C[C@H](N)[C@H](O)[C@H](C)O1 [doxorubicin]	–	diffuse region of mid-frequency content (arrow) that mirrors cleaved caspase-3 (CC3) IHC
